The source of these data is PMC10016038, “Enhanced Endosomal Signaling and Desensitization of GLP-1R vs GIPR in Pancreatic Beta Cells” (Endocrinology, 2023).

One test relates to SNAP-GIPR. Kind of test: Nb37 bystander NanoBiT, endosome (Endofin), GIPR. The test is classed as cell-based, human. The following applies: Endofin-LgBiT, n = 4. The text has this: The Nb37 assay constructs were kindly provided by Prof. Asuka Inoue, Tohoku University, Japan. Nb37 (gene synthesized by GenScript with codon optimization) was C-terminally fused to SmBiT with a 15 amino acid flexible linker ([…]), and the resulting construct referred to as Nb37-SmBiT. The C-terminal KRAS CAAX motif ([…]) was N-terminally fused with LgBiT (LgBiT-CAAX). The Endofin FYVE domain (amino acid region Gln739-Lys806) was C-terminally fused with LgBiT (Endofin-LgBiT). Gαs (human, short isoform), Gβ1 (human), Gγ2 (human), and RIC8B (human, isoform 2) plasmids were inserted into pcDNA3.1 or pCAGGS expression plasmid vectors. INS-1 832/3 GLP-1R KO or GIPR KO cells were seeded in 6-well plates and co-transfected with 0.1 μg SNAP-GLP-1R or SNAP-GIPR, 0.5 μg Gαs, Gβ1, and Gγ2, 0.1 μg RIC8B, 0.1 μg CAAX-LgBiT or 0.5 μg Endofin-LgBiT with 0.1 μg or 0.5 μg Nb37-SmBiT, respectively, with 0.8 µg pcDNA3.1 added to the former to equalize DNA content.
All NanoBiT and NanoBRET readings were obtained in a Flexstation 3 plate reader. […] Readings were normalized to well baseline and then to average vehicle-induced signal to establish the agonist-induced effect. AUCs from response curves were calculated for each agonist concentration and fitted to four-parameter curves using Prism 9 (GraphPad). […]

In a further test the test system is SNAP-tagged human GIPR. Kind of test: High-content microscopy recycling, SNAP-GIPR. The test is classed as cell-based. Particulars: 100 nM, 60 min recycling, 37 °C, n = 5. As for the experimental part:
The assay was performed as previously described ([21]). The INS-1 832/3 SNAP-GLP-1R or SNAP-GIPR cells were seeded into poly-D-lysine-coated, black 96-well plates. On the day of the assay, labeling was performed with BG-S-S-649 (1 µM), a surface-labeling SNAP-tag probe that can be released on application of reducing agents such as Mesna. After washing, treatments were applied for 30 minutes at 37 °C in complete medium. Ligand was removed and cells washed with cold HBSS and placed on ice for subsequent steps. Mesna (100 mM in alkaline TNE buffer, pH 8.6) or alkaline TNE buffer without Mesna was applied for 5 minutes, and then washed with HBSS. Cells were imaged by widefield microscopy, with both epifluorescence and transmitted phase contrast images acquired. On imaging completion, HBSS was removed and replaced with fresh complete medium, and receptor was allowed to recycle for 60 minutes at 37 °C, followed by a second Mesna application to remove any receptor that had recycled to the plasma membrane, with the plate re-imaged as above. Internalized receptor at each time point was determined from cell-containing regions as determined from the phase contrast image using […] ([22]) and used to determine internalization and recycling parameters as previously described ([21]). […]

The target in another test is SNAP-tagged human GLP-1R (Homo sapiens, UniProt P43220). Kind of test: DERET internalization assay, INS-1 832/3 SNAP-GLP-1R cells. The test is classed as cell-based. Particulars: non-cognate agonist GIP.
In test [1] the test system is INS-1 832/3 GLP-1R KO cells. Kind of test: Insulin secretion assay, GLP-1R KO cells. The test is classed as cell-based, rat. Particulars: 100 nM, 11 mM glucose; n = 5. As for the experimental part: At the end of the treatments, the supernatant containing the secreted insulin was collected, centrifuged at 1000g for 3 minutes, and transferred to a fresh tube. To determine total insulin content, cells were lysed using KRBH buffer + 1% w/v BSA + 1% v/v Triton X-100 (Sigma). The lysates were sonicated 3 × 10 seconds in a water bath sonicator and centrifuged at 10 000g for 10 minutes, and the supernatants collected. The samples were stored at −20 °C until the insulin concentration was determined using an Insulin Ultra-Sensitive HTRF Assay kit (62IN2PEG, Cisbio, Codolet, France) according to the manufacturer's instructions.
Figure 7. Functional analysis of GLP-1R vs GIPR signaling in beta cells. […] Data are mean ± SEM, compared by paired t tests; *P < .05; ns, nonsignificant.

Another test relates to GLP-1R-SmBiT. Kind of test: Mini-G protein/β-arrestin 2 recruitment NanoBiT, GLP-1R. The test is classed as cell-based. Particulars: 100 nM GLP-1, 30 minutes, n = 5. An excerpt:
Here the SmBiT was cloned in frame at the C-terminus of the GLP-1R and the GIPR by substitution of the Tango sequence on FLAG-tagged GLP-1R-Tango or GIPR-Tango (a gift from Prof. Bryan Roth, University of North Carolina, USA; Addgene plasmids #66291 and #66294), respectively. Mini-Gs, mini-Gq, and mini-Gi plasmids, tagged at the N-terminus with LgBiT, were a gift from Prof. Nevin Lambert, Medical College of Georgia, USA. For β-arrestin 2 recruitment assays, β-arrestin 2 fused at the N-terminus to LgBiT (LgBiT-β-arrestin 2; Promega, plasmid no. CS1603B118) was chosen as it has previously been used successfully with other class B GPCRs. […]
All NanoBiT and NanoBRET readings were obtained in a Flexstation 3 plate reader. […] Readings were normalized to well baseline and then to average vehicle-induced signal to establish the agonist-induced effect. AUCs from response curves were calculated for each agonist concentration and fitted to four-parameter curves using Prism 9 (GraphPad).
Figure 5. […] (A) Kinetics of Gαs, Gαq, Gαi, and β-arrestin 2 recruitment to the GLP-1R assessed by NanoBiT complementation assay in INS-1 832/3 GLP-1R KO cells transiently expressing GLP-1R-SmBiT and the corresponding mini-G protein subtype or β-arrestin 2. […]
(Activated receptors often draw arrestin, which recruitment assays turn into a signal.)

SNAP-tagged human GLP-1R, sequence (P43220 24-463): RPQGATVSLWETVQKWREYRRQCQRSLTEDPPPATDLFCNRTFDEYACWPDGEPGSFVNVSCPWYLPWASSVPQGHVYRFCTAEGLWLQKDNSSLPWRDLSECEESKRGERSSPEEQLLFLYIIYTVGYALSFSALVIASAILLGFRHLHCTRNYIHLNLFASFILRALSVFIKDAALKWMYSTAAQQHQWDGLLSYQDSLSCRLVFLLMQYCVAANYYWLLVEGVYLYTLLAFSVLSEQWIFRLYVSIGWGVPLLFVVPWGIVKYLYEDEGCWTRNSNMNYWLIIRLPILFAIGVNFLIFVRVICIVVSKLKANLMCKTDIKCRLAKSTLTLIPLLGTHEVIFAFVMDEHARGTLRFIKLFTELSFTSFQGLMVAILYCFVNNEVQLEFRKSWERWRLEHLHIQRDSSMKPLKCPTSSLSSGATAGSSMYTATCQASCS

With GIP(1-42), in the test with SNAP-GIPR, the “GIPR endosomal activity, Emax response vs GLP-1R” value is on record as “profoundly reduced” and the “GIPR potency for endosomal signaling vs GLP-1R” value is given as “increased potency”. The “Recycling rate of GIPR compared with GLP-1R” value with SNAP-tagged human GIPR is on record as “significantly increased recycling rates”. In the test with SNAP-tagged human GLP-1R, the GLP-1R internalization entry is recorded as “negligible”.
In the case of GLP-1(7-36)NH2, the “Insulin secretion response in GLP-1R KO cells” value in test [1] is reported as “abolished”. In the test with GLP-1R-SmBiT, the “Gαi coupling of GLP-1R” value is listed as “minimum coupling” and the “Gαs coupling of GLP-1R” value is listed as “preferentially coupled to Gαs”.
